Assay results from paper PMC3501500, “Conformational Selection Underlies Recognition of a Molybdoenzyme by Its Dedicated Chaperone” (PLoS ONE, 2012).

Experiments:
NarJ = settings: NMR; isolated NarG(1–15) peptide vs NarJ-bound; ref [18]; cited from earlier work
NarG(1–15) peptide = biological target: T1, NarG(1–15) peptide (Escherichia coli, UniProt P09152); settings: 2 µM NarJT, 50 mM Tris-HCl pH 7.5, 1 mM MgCl2, 296 K; peptide stock 50 µM
T1 sequence (P09152 whole entry, looked up): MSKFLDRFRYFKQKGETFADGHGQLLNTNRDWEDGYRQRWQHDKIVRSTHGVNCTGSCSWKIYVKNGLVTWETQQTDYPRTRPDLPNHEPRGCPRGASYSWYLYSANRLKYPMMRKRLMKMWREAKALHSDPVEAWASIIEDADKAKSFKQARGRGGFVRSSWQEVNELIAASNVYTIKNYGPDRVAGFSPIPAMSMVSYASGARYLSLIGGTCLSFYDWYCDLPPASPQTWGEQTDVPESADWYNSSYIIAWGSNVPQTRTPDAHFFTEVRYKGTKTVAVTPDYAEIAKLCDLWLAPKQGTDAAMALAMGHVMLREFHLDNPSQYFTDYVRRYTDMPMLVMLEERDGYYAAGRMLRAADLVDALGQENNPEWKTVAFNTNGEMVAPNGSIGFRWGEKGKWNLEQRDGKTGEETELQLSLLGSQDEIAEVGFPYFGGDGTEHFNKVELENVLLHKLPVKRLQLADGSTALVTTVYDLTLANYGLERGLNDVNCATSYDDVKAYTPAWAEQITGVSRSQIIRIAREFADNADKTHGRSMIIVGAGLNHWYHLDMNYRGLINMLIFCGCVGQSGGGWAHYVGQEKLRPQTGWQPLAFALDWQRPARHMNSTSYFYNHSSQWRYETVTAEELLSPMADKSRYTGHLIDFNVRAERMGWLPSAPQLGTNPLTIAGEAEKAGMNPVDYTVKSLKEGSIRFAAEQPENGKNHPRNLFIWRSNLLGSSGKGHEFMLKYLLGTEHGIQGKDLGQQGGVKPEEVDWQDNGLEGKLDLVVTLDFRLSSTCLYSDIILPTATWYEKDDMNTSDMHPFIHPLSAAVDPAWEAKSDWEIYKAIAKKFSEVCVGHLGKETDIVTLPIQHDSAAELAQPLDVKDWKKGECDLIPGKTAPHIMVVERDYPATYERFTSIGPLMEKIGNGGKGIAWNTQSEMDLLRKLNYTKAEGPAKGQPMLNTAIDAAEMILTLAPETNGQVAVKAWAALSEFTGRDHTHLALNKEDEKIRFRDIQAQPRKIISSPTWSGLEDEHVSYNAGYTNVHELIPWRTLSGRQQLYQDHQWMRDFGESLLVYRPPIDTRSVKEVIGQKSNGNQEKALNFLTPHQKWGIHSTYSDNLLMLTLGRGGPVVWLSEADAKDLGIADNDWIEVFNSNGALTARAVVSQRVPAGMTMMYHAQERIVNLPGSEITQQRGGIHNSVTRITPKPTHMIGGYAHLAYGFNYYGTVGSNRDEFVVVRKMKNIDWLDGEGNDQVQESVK
Procedure: Tryptophan fluorescence spectroscopy
Increasing concentrations of NarG(1–15) peptide at 50 µM (initial concentration) were then added and the emission fluorescence was scanned. Excitation was at 285 nm and emission was recorded from 310 to 410 nm with excitation and emission band-passes at 2 nm. […] Dissociation constants were calculated by plotting relative fluorescence peak integration against ligand concentration and curve-fitting using Origin software.
Indicated values are the average of at least three independent measurements.

## NarG(1–15) peptide: N-terminal NarG peptide, first 15 residues, chemically synthesized and purified by Synprosis (MSKFLDRFRYFKQKG; UniProt P09152 1-15, looked up, fragment)
NarJ
  structure of peptide upon NarJ binding (in words): remains unchanged upon NarJ binding
NarG(1–15) peptide
  maximal decrease of the tryptophan fluorescence of NarJT upon peptide addition: 30%
